# Reference: patent US10653749B2, “Targeting GIV-GEF-GI signaling for treating diverse diseases” (The Regents of the University of California, priority 2015, dated 2020)
# Entries after “also recorded” stand apart in the source; their conditions may differ.
# T1: GST-tagged domains of IRS1 (Rattus norvegicus, UniProt P35570)
# T1 construct: GST-tagged IRS1 domains (N: aa 2-516, M: aa 526-859 and C: 900-1235); made in house
# T1 sequence (P35570 2-516): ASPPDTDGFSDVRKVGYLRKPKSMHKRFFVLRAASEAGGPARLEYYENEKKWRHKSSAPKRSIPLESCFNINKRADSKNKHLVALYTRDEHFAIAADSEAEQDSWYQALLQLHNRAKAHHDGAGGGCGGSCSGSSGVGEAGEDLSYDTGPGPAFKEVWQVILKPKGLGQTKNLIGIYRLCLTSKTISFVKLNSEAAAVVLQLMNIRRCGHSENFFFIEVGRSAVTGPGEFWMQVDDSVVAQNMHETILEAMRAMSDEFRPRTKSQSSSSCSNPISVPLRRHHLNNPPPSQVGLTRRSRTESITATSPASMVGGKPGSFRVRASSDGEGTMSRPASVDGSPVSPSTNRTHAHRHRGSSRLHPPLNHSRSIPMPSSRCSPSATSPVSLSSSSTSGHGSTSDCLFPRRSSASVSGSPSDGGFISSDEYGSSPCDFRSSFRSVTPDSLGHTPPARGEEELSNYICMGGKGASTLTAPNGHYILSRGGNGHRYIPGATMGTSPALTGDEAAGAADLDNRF
# B1: His-GIV-CT: Recombinant His-tagged GIV-CT (aa 1660-1870) expressed from pET28b (protein)
# chain: ETLESRHHKIKTGSPGSEVVTLQQFLEESNKLTSVQIKSSSQENLLDEVMKSLSVSSDFLGKDKPVSCGLARSVSGKTPGDFYDRRTTKPEFLRPGPRKTEDTYFISSAGKPTPGTQGKIKLVKESSLSRQSKDSNPYATLPRASSVISTAEGTTRRTSIHDFLTKDSRLPISVDSPPAAADSNTTAASNVDKVQESRNSKSRSREQQSS
# modifications: left off: small tags and cut ends
# notes: Recombinant His-tagged GIV-CT (aa 1660-1870) expressed from pET28b
# Tests used:
# [1] = system: GIV, IRS1 and Akt phosphorylation; assay: Metabolic insulin signaling in L6 cells by immunoblotting; assay type: cell-based, rat
# Protocol: (§1) Transfection was carried out with GeneJuice (Novagen) for DNA plasmids or Oligofectamine (Invitrogen) for siRNA oligos according to manufacturer's protocols. Silencer negative Control scrambled (Scr) siRNA used as control was purchased from Ambion and the previously validated (Enomoto et al., 2005) GIV siRNA sequence used was custom-ordered from Dharmacon. For TAT-construct transduction, cells were incubated with 300-800 nM of the TAT-proteins for 30 min at 37° C. prior to three washes with PBS and addition of fresh growth media. For assays involving insulin (Novagen) stimulation of TAT-treated cells, such stimulation was carried out 90 min after transduction.
# (§2) Unless otherwise indicated, serum starvation of cells for use in experiments involving insulin stimulation was carried out by growing cells overnight in the presence of no serum (i.e., 0% FBS) in the case of Cos7 and L6 cells, or in the presence of 0.2% FBS in the case of HeLa cells. To induce IR, cells were pre-treated with Sodium Palmitate (PA; Sigma-Aldrich) (0.5 mM, stock solution at 5 mM/5% FFA-free BSA in ethanol) or vehicle control (5% FFA-free BSA in ethanol) for 16 h. To reverse IR with TZDs, cells were treated with 50 μM Pioglitazone (Pio) (Sigma-Aldrich) or DMSO (vehicle control) for 18 h prior to stimulation with 100 nM insulin. Treatment with PKCθ pseudo-substrate inhibitor (Santa Cruz Biotechnologies) was performed at 10 μM for 16 h.
# Protein samples for immunoblotting were run on SDS/PAGE gels and transferred onto PVDF membranes (Millipore). Membranes were blocked with PBS containing 5% non-fat milk (or with 5% BSA when probing for phosphorylated proteins) before incubation with primary antibodies. GIV was detected using rabbit anti-GIV coiled-coil (Millipore) (1:500); GIV-CT (Santa Cruz Biotechnologies) (1:500); phospho-Tyr1764-GIV (1:500) and phospho-Ser1689-GIV (21st Century Biochemicals) (1:250) antibodies. Other antibodies used in this work include rabbit polyclonal antibodies against Gαi3 (1:333), pan-GP (1:250) and phospho-IRS1 (1:500) from Santa Cruz Biotechnologies; and phospho-Akt (1:250); total Akt (1:250); phospho-ERK (1:250); phospho-AS160 (1:250); total InsRβ (1:500) and total IRS1 (1:500) from Cell signaling. Mouse monoclonal Abs against phospho-InsRβ (1:250), His (1:1000), β-tubulin (1:1000), GFP (1:500) from Santa Cruz Biotechnologies, and control IgG (Bio-Rad Laboratories) were commercially obtained. Goat anti-rabbit and goat anti-mouse Alexa Fluor 680 or IRDye 800 F(ab′)2 secondary antibodies were purchased from Li-Cor Biosciences. Images were processed with ImageJ software (NIH) and assembled as figure panels using Photoshop and Illustrator software (Adobe).
# [2] = system: L6 myotubes; assay: Fluorometric 2-deoxyglucose uptake assay after insulin stimulation; assay type: cell-based, rat
# Protocol: as §1, §2
# Glucose uptake assays were performed without the use of radioisotopes as described previously (Yamamoto et al., 2006). HeLa and L6 cells grown in 6-well plates were stimulated with insulin in KRH Buffer [50 mM HEPES, 137 mM NaCl, 4.7 mM KCl, 1.85 mM CaCl2, 1.3 mM MgSO4, and 0.1% (w/v) BSA-FFA free, pH 7.4]. Cells were incubated with 1 mM 2-deoxyglucose (2-DG) for 20 min, washed, and subsequently lysed with 0.1 N NaOH. The lysates were transferred into eppendorf tubes and samples were incubated in a water bath maintained at 80° C. for 45 min to degrade endogenous NAD(P)H and NAD(P)^+. An equal volume each of 0.1 N HCl and Triethanolamine (200 mM TEA, pH 8.1) buffer were added to each tube. Samples were subsequently mixed with assay solution [50 mM TEA, 0.02% BSA-FFA free, 10 μM NAD(P)^+, 0.2 U/ml Diaphorase, 6 nM Resazurin sodium, 15 U/ml G6PDH (Santa Cruz Biotechnologies)] and incubated at 37° C. for 90 min. Fluorescence intensity (λex=550 nM, λem=590 nM) was determined using a Tecan Inifinite M1000 PRO and normalized to total protein, as determined using BCA assay (Thermo Scientific).
# [3] = system: GIV binding to GST-Gαi3 [preloaded with GDP]; assay: GST-Gαi3 pulldown of GIV from lysates of PA-treated L6 myoblasts; conditions: L6 treated with PA 0.5 mM, 16 h
# Protocol: (§3) Purified GST-Gαi3, GST-tagged IRS1 domains or GST alone were immobilized on glutathione-Sepharose beads (GE Healthcare) for 1 h at room temperature as described before (Garcia-Marcos et al., 2012; Ghosh et al., 2010; Ghosh et al., 2008; Lin et al., 2011). L6 lysates or His-GIV CT protein were added to each tube, and binding reactions were carried out for 4 h at 4° C. with constant tumbling in binding buffer [50 mM Tris-HCl (pH 7.4), 100 mM NaCl, 0.4% (v:v) Nonidet P-40, 10 mM MgCl2, 5 mM EDTA, 2 mM DTT, protease inhibitor mixture]. Beads were washed (4×) with 1 mL of wash buffer [4.3 mM Na2HPO4, 1.4 mM KH2PO4 (pH 7.4), 137 mM NaCl, 2.7 mM KCl, 0.1% (v:v) Tween 20, 10 mM MgCl2, 5 mM EDTA, 2 mM DTT] and bound complexes were eluted by boiling in Laemmli's sample buffer. When GST-Gαi3 was used in the assay, both binding buffer and washing buffer were supplemented with 30 μM GDP and bound proteins were eluted by incubating at 37° C.
# [4] = biological target: T1, GST-tagged domains of IRS1; assay: Pulldown of recombinant His-GIV-CT with GST-tagged IRS1 domains; assay type: binding; conditions: recombinant proteins
# Protocol: as §3
GIV's ability to bind Gi (Gαi3) [3],Molecule,phosphorylation of GIV at Y1764 ([1]; L6 cells treated with PA),"phosphorylation of GIV at S1689 ([1]; L6 cells treated with PA (0.5 mM, 16 h))",induction of IR (glucose-uptake response to insulin) ([2]; L6-GIV-SA cells (S1689A)),induction of IR (glucose-uptake response to insulin) ([2]; L6-GIV-WT cells),binding to IRS1 domains [4]
reduced; also recorded: loss of binding,"CCCCCCCCCCCCCCCC(=O)[O-].[Na+] [PA, Sodium Palmitate, reference compound]",suppressed,enhanced,resistant to PA,induced IR,
,B1,,,,,specifically bound the N-terminus of IRS1
